What all share (format): cell-based, human
In one assay the test system is ABCA1. Description: ABCA1 expression in HaCaT cells (real time PCR). The settings on record: HaCaT; 10 uM; 24 h after UV irradiation. As for the experimental part: […] Twenty four hours after irradiation, the cells were harvested and RNA isolated to assess the expression of LXR-alpha, LXR-beta, ABCA1, TNF-alpha, IL-6, and IL-8 genes. HaCaT cells were cultured in DMEM supplemented with 10% (v/v) fetal bovine serum, penicillin (100 U/mL), streptomycin ([…]) and glutamine (2 mM). […] The expressions of ABCA1, TNF-alpha, IL-6, IL-8, LXR-alpha, and LXR-beta were normalized according to glyceraldehyde-3-phosphate dehydrogenase (GAPDH) expression. The results of three independent assays, carried out in duplicate for each condition, are reported.

For the next assay, the system named is ABCG1. Description: ABCG1 expression in HL-60 cells (real time PCR). Conditions: 10 uM, 6 h. On the procedure: To investigate the effects of Compounds I and II on the expression of three genes involved in lipid metabolism [fatty acid synthase (FAS); and two ATP-dependent cholesterol and phospholipid transporters, such as ABCA1 and ABCG1], human promyelocytic leukemia cells (HL-60) that endogenously express LXR-alpha and LXR-beta were incubated in the presence of either Comp I or Comp II (10 uM), or GW3965 (1 uM) for 6 h. mRNA levels for FAS, ABCA1 and ABCG1 were determined by real time PCR and results were normalized to GAPDH expression. HL-60 (10^6 cells/well) were cultured in RPMI medium supplemented with 5% (v/v) fetal bovine serum, penicillin (100 IU/mL), streptomycin (100 ug/mL) y cyprofloxacin (0.4 ug/mL). […] To obtain RNA, at the end of the incubation the cells were collected by centrifugation at 1,000 rpm for 2 min, washed with phosphate buffered saline, and lysed in 300 ul TRIZOL (Invitrogen). RNA samples were suspended in […] of RNAse free water, and their concentration determined (NanoDrop spectrophotometer). […] To obtain cDNA, 1 ug of total RNA was denatured by incubating for 5 min at 70° C., before the addition of a mixture containing 0.5 ug oligo-dT primers and 25 ng/ml of random primers (Invitrogen), 1.0 mM dNTPs (Invitrogen), and 200 U M-MLV reverse transcriptase (Promega); after this the mixture was retrotranscribed at 37° C. for 60 min, followed by an incubation at 95° C. for 5 min to inactivate the enzyme. For the real time PCR amplification (Stratagene Thermal Cycler), cDNA samples were diluted 1/5 to 1/10 depending on the target amplification product. Calibration curves were obtained by use of eight successive 1:2 sample dilutions. Amplifications were carried out in a 25 ul final volume (5 ul cDNA sample plus 20 ul of reaction mixture) in the presence of either 3, 4 or 5 mM MgCl2 (depending on the amplified sequence), 0.25 mM dNTPs (Invitrogen), 1.25 U Taq polymerase (Invitrogen), 1 μM of the specific primers according to the target amplification sequence, and 0.025 μl SYBR Green (Roche). […]

The next assay relates to TNF-alpha. Description: TNF-alpha expression in UV-irradiated HaCaT cells (real time PCR). The settings on record: 10 uM, 24 h after UV (254 nm, 15 J/m^2), normalized to GAPDH. On the procedure: HaCaT cells—a human immortalized keratinocyte cell line—were exposed to 15 J/m^2 UVB (254 nm) irradiation. Twenty four hours after irradiation, the cells were harvested and RNA isolated to assess the expression of LXR-alpha, LXR-beta, ABCA1, TNF-alpha, IL-6, and IL-8 genes. HaCaT cells were cultured in DMEM supplemented with 10% (v/v) fetal bovine serum, penicillin (100 U/mL), streptomycin ([…]) and glutamine (2 mM). […] The expressions of ABCA1, TNF-alpha, IL-6, IL-8, LXR-alpha, and LXR-beta were normalized according to glyceraldehyde-3-phosphate dehydrogenase (GAPDH) expression. The results of three independent assays, carried out in duplicate for each condition, are reported.

`CC[C@@H](C(C)C)[C@H](O)[C@@H](O)[C@@H](C)[C@H]1CC[C@H]2[C@@H]3CCC4=CC(=O)CC[C@]4(C)[C@H]3CC[C@]12C` [Compound I, (22S,23S)-22,23-dihydroxystigmast-4-en-3-one]: the “ABCA1 expression versus DMSO-treated cells” value with ABCA1 is “marginally induced”. Also, the “effect on ABCG1 expression” value in the assay on ABCG1 was “none of the test compounds significantly affected”. Further, in the assay with TNF-alpha, the “TNF-alpha expression versus DMSO-treated cells” value is “significantly lower”.
On the same counts, the results for `CC[C@@H](C(C)C)[C@H](O)[C@@H](O)[C@@H](C)[C@H]1CC[C@H]2[C@@H]3CCC4=CC(=O)C=C[C@]4(C)[C@H]3CC[C@]12C` [Compound II, (22S,23S)-22,23-dihydroxystigmasta-1,4-dien-3-one] are “marginally induced”, “none of the test compounds significantly affected” and “significantly lower”.

(Values after patent US20190365784A1, “USE OF BRASSINOSTEROID ANALOGS FOR THE TREATMENT OF DERMAL DISORDERS BY SELECTIVELY MODULATING LIVER X RECEPTORS (LXR) AND DERMAL DISEASE TREATMENT BY BRASSINOSTEROID ANALOGS ACTING AS SELECTIVE LIVER X RECEPTOR (LXR) MODULATORS” (CONSEJO NACIONAL DE INVESTIGACIONES CIENTÍFICAS Y TÉCNICAS …, priority 2015, published 2019).)
